{"source": "patent US8710018B2", "about": "“Methods and compositions for inhibiting progression to chronic cardiac failure” (priority 2008, dated 2014)", "key": {"[1]": {"tested_on": "myocardial ATP levels", "details": "cited from earlier work"}, "[2]": {"tested_on": "myocardial ATP levels", "details": "rats given a toxic dose of isoproterenol and constriction of the abdominal aorta; cited from earlier work"}, "[3]": {"tested_on": "patients with chronic coronary artery disease and CHF", "details": "3 weeks of oral D-ribose, 15 patients with existing CHF, cited from earlier work"}, "[4]": {"tested_on": "rat myocardial infarction model (left anterior descending (LAD) artery ligation)", "test": "Rat myocardial infarction model (LAD artery ligation), echocardiographic function of the remote myocardium", "format": "in vivo", "from_the_text": "Although believed to be applicable to several different precipitating causes of CHF, the present inventor initially chose a myocardial infarction model because it would allow the effects of the infarct on the normal remaining myocardium to be studied without confounding factors, particularly the presence of disease in the tissues studied.\nAn important consequence of an MI is that the uninvolved, often normal, remote myocardium (RM) must assume the entire workload of the ventricle. […] The subcellular events which control and set in motion, the progression to CHF were heretofore unknown. The present inventor hypothesized that the progression begins when the remaining normal myocardium (RM) must assume the entire cardiac load, in effect a large increase for the RM, producing an unfavorable myocardial energy supply/demand ratio which leads to depressed myocardial energy levels. Moreover, because of the continuous nature of the stress imposed, there is essentially no opportunity to recover. As a result, the continued breakdown of AMP with further erosion of ATP levels occurs. Studies to understand this progression in a myocardial infarction (MI) model were undertaken. The hypothesis that a fall in RM energy levels, including myocardial ATP, leads to decreased function was tested by infusing ribose in a rat MI model. A rat myocardial infarction model involving (left anterior descending (LAD) artery ligation) was utilized. In this model the RM must produce the entire cardiac output and left ventricular (LV) dysfunction develops as depicted in FIG. 2 and in the results depicted in FIGS. 3-6.\nMethods: Male Lewis rats (250-300 g, n=12) were evaluated by initial baseline 2D guided M-mode echocardiographic analysis using an HP SONOS 1550 system. The echocardiography included short axis views and EF by cubed formula, analyzing the variables of LVdd, LVsd, RM wall thickness, EF and SF. […] Animals underwent ligation of the left anterior descending coronary artery by to produce an anterior wall MI at 1-2 days after pump placement and received continuous venous infusion of 0.9% NaCl solution (at 30 μl/kg/hr) with or without 2.5% D-ribose (N=6 for each group) via the implanted osmotic mini-pump for 14 days. Echocardiographic analysis was performed 2 and 4 weeks post-MI to assess changes in function by ejection indices (ventricular contractility, ejection and shortening fractions), chamber dimensions, and wall thickness. FIG. 3 depicts the M-mode echocardiographic appearance of a rat heart in which post MI CHF has developed."}, "[5]": {"tested_on": "rodent MI model", "details": "continuous i.v. ribose from before ligation for up to 48 hours, cited from earlier work"}, "[6]": {"details": "2 wks post MI, 2.5% D-ribose continuous venous infusion for 14 days"}, "[7]": {"details": "4 wks post MI, 2.5% D-ribose continuous venous infusion for 14 days"}, "[8]": {"details": "Pre-MI (baseline), ribose group"}, "[9]": {"details": "ribose infusion for 14 days after MI"}}}
{"smiles": "O=C[C@H](O)[C@H](O)[C@H](O)CO", "note": "[Ribose, D-ribose]", "values": [{"measurement": "speeding of ATP recovery", "setting": "[1]; acute stress models of recovery (i.e. global ischemia), ribose bypasses the G6PDH step", "result": "at least 10 fold"}, {"measurement": "return of myocardial ATP levels and function", "setting": "[1]; global ischemia and reperfusion model, ribose infusion", "result": "greatly enhance return"}, {"measurement": "ATP levels", "setting": "[2]", "result": "maintained for 24 hours"}, {"measurement": "quality of life by questionnaire", "setting": "[3]; P< or =0.01", "result": "467±128"}, {"measurement": "E wave deceleration", "setting": "[3]; P=0.002", "result": "196±42"}, {"measurement": "left atrial dimension", "setting": "[3]; P=0.02", "result": "47 ± 18", "unit": "mL"}, {"measurement": "Ejection fraction (EF)", "setting": "[4]; [6]", "result": "50.5 ± 5.9", "unit": "%"}, {"measurement": "LV diastolic diameter", "setting": "[4]; [6]", "result": "0.72 ± 0.08", "unit": "cm"}, {"measurement": "LV systolic diameter", "setting": "[4]; [6]", "result": "0.47 ± 0.22", "unit": "cm"}, {"measurement": "Posterior wall diastolic thickness", "setting": "[4]; [6]", "result": "0.18 ± 0.12", "unit": "cm"}, {"measurement": "Shortening fraction (SF)", "setting": "[4]; [6]", "result": "19.8 ± 4.4", "unit": "%"}, {"measurement": "Ejection fraction (EF)", "setting": "[4]; [7]", "result": "49.1 ± 9.4", "unit": "%"}, {"measurement": "LV diastolic diameter", "setting": "[4]; [7]", "result": "0.76 ± 0.07", "unit": "cm"}, {"measurement": "LV systolic diameter", "setting": "[4]; [7]", "result": "0.64 ± 0.09", "unit": "cm"}, {"measurement": "Posterior wall diastolic thickness", "setting": "[4]; [7]", "result": "0.13 ± 0.03", "unit": "cm"}, {"measurement": "Septal diastolic thickness", "setting": "[4]; [7]", "result": "0.12 ± 0.02", "unit": "cm"}, {"measurement": "Shortening fraction (SF)", "setting": "[4]; [7]", "result": "19.9 ± 6.1", "unit": "%"}, {"measurement": "Ejection fraction (EF)", "setting": "[4]; [8]", "result": "76.4 ± 5.9", "unit": "%"}, {"measurement": "LV systolic diameter", "setting": "[4]; [8]", "result": "0.39 ± 0.06", "unit": "cm"}, {"measurement": "Posterior wall diastolic thickness", "setting": "[4]; [8]", "result": "0.13 ± 0.02", "unit": "cm"}, {"measurement": "Septal diastolic thickness", "setting": "[4]; [8]", "result": "0.13 ± 0.02", "unit": "cm"}, {"measurement": "Shortening fraction (SF)", "setting": "[4]; [8]", "result": "38.6 ± 5.3", "unit": "%"}, {"measurement": "LV diastolic diameter", "setting": "[4]; Pre-MI (baseline), ribose group, 2.5% D-ribose continuous venous infusion 30 μl/kg/hr for 14 days", "result": "0.64 ± 0.04", "unit": "cm"}, {"measurement": "contractility (EF, SF) compared to the untreated animals", "setting": "[4]; [9]", "result": "better preserved"}, {"measurement": "ventricular dilation", "setting": "[4]; [9]", "result": "significantly reduced"}, {"measurement": "wall thickness compared to the untreated animals", "setting": "[4]; [9]", "result": "increased"}, {"measurement": "post-MI rise in LV end-diastolic pressure", "setting": "[5]", "result": "reduced"}, {"measurement": "fall of ATP in the nonischemic myocardium", "setting": "[5]; first (24 hr) time point", "result": "reduce the fall of ATP"}]}
